From patent US7271161B2, “Platinum complexes as antitumor agents in combination with biochemical modulation” (Board of Regents, the University of Texas System, priority 2002, dated 2007)
Read-outs that look alike come from different tables or passages of the source.

Key:
2008/C13* cell line = experiment: MTT cytotoxicity assay, cisplatin-resistant ovarian 2008/C13* cells, with or without BSO; assay type: cell-based, Human; settings: for IC50: Table 4
Excerpt: (§1) The ovarian A2780 and 2008 cell lines are sensitive to cisplatin, while the corresponding 2780CP and 2008/C13* cell lines were selected for resistance following in vitro exposure to cisplatin. The SKOV-3 cell line was established from a patient who was resistant to cisplatin therapy and is considered a model of cisplatin resistance. The A2780 and 2780CP cells have wild-type p53 function, while SKOV-3 is devoid of p53 function. The p53 status for the 2008 and 2008/C131 cells is presently not known.
(§2) Procedure for Cytotoxic Evaluation. All cell lines are maintained in RPMI 1640 medium supplemented with 10% fetal bovine serum, 50 μg/ml penicillin, 50 μg/ml streptomycin, 100 μg/ml neomycin and 0.3 mg/ml L-glutamine. The ovarian lines also require 2 μg/ml insulin for maximal growth. Cells are grown as monolayers at 37° C. in a humidified atmosphere of 5% CO2:95% air. Cytotoxicity is determined by a standard MTT assay. Briefly, the exponentially-growing cells are trypsinized to dislodge them before use. After diluting the tumor cells to appropriate concentrations (2,000-30,000 cells/ml), 100 μl aliquots of the cell suspensions are added to each well of a 96-well microtiter plate. The cells are allowed to attach overnight, and then exposed for 24 hr to BSO at a concentration that is equal to or less than maximally tolerated concentration (MTC). At 22 hr after addition of BSO, the platinum complex is added, and 2 hr later the cells are washed and reincubated. After another 5 days, when control cells are in an exponential phase of growth, 50 μl of an MTT solution (3 mg/ml) is added to each well. Following a 3-hr incubation, the medium is removed and replaced by 50 μl of 100% DMSO to dissolve MTT formazan crystals. Plates are agitated on a plate shaker for 5 min, and absorbances are measured at 570 nm in a multiwell scanning spectrophotometer.
(§3) IC50 values, defined as the drug concentration (μM) inhibiting cell growth by 50% compared to control wells, are determined by fitting a sigmoidal curve to the data using a computer program. Resistance factor is calculated as a ratio of the IC50 against resistant cell line to the IC50 against parent cell line. The dose modification factor (DMF) is derived from a ratio of IC50 without BSO to that with BSO.

2008 cell line = experiment: MTT cytotoxicity assay, cisplatin-sensitive ovarian 2008 cells, with or without BSO; assay type: cell-based, Human; settings: for IC50: Table 4
Excerpt: as §1, §2, §3

SKOV-3 cell line = experiment: MTT cytotoxicity assay, cisplatin-resistant SKOV-3 cells, with or without BSO; assay type: cell-based, Human; settings: for IC50: Table 4; for IC50 / DMF +BSO (MTC) / DMF Control: SKOV-3; for DMF +BSO (MTC) / DMF Control: Table 5; for DMF Control: absence of BSO (reference)
Excerpt: as §1, §2, §3

Human A2780 cell line = experiment: MTT cytotoxicity assay, cisplatin-sensitive ovarian A2780 cells, with or without BSO; assay type: cell-based; parameters: key to DMF vs. A2780 Control (Without BSO): DMF = IC50 without BSO / IC50 with BSO; settings: for DMF vs. A2780 +10 μM BSO (MTC): IC50 without BSO / IC50 with 10 μM BSO (MTC); for DMF vs. A2780 Control (Without BSO): without BSO (reference)
Excerpt: as §1, §2, §3

Human 2780CP cell line = experiment: MTT cytotoxicity assay, cisplatin-resistant ovarian 2780CP cells, with or without BSO; assay type: cell-based; parameters: key to DMF vs. 2780CP Control (Without BSO) / DMF Control / DMF +BSO (MTC): DMF = IC50 without BSO / IC50 with BSO; settings: for Resistance Factor vs. 2780CP +10 μM BSO: IC50 2780CP with 10 μM BSO / IC50 A2780 without BSO; for Resistance Factor vs. 2780CP +3 mM BSO (MTC): IC50 2780CP with 3 mM BSO (MTC) / IC50 A2780 without BSO; for Resistance Factor vs. 2780CP Control (Without BSO): IC50 2780CP without BSO / IC50 A2780 without BSO; for DMF vs. 2780CP +10 μM BSO: IC50 without BSO / IC50 with 10 μM BSO; for DMF vs. 2780CP +3 mM BSO (MTC): IC50 without BSO / IC50 with 3 mM BSO (MTC); for DMF vs. 2780CP Control (Without BSO): without BSO (reference)
Excerpt: as §1, §2, §3

[1] = system: human melanoma cell line (RPMI 8322); settings: cited from earlier work
[2] = system: sensitive and resistant cells; settings: cited from earlier work
[3] = biological target: T1, γ-Glutamylcysteine synthetase (Rattus norvegicus, UniProt P19468); settings: cited from earlier work
T1 sequence (P19468 1-637): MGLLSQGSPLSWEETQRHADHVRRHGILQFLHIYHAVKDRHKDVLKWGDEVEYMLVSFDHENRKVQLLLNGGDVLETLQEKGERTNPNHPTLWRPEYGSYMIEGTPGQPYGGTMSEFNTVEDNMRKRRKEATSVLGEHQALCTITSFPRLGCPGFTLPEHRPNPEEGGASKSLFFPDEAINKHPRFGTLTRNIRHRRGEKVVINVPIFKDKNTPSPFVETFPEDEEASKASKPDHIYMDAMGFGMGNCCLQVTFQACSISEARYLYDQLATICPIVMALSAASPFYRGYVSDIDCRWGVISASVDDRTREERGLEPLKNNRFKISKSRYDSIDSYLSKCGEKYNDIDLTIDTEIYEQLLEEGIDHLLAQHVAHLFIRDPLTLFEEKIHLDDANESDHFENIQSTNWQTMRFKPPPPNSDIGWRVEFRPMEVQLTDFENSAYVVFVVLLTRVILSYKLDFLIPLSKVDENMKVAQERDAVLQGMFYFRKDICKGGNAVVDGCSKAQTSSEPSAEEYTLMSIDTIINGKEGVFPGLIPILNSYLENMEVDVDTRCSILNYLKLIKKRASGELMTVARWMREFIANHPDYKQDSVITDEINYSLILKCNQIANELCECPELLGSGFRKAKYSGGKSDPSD

[4] = BSO at sub-MTC, read-out: IC50 +BSO (MTC)
[5] = absence of BSO, read-out: IC50 Control
[6] = +10 μM BSO (MTC), 24 hr BSO, read-out: IC50 (μM) vs. A2780 +10 μM BSO (MTC)
[7] = without BSO, 2 hr platinum exposure, MTT after 5 days, read-out: IC50 (μM) vs. A2780 Control (Without BSO)
[8] = +10 μM BSO, read-out: IC50 (μM) vs. 2780CP +10 μM BSO
[9] = +3 mM BSO (MTC), read-out: IC50 (μM) vs. 2780CP +3 mM BSO (MTC)
[10] = without BSO, read-out: IC50 (μM) vs. 2780CP Control (Without BSO)

## N.N.[Cl][Pt][Cl] [Complex 1, cis-diamminedichloroplatinum, reference compound]
2008/C13* cell line; 2008/C13*, BSO at MTC, read-out: IC50 +BSO (MTC)
  IC50: 10.4 µM
2008/C13* cell line; 2008/C13*, absence of BSO, read-out: IC50 Control
  IC50: 20.8 µM
2008/C13* cell line; Table 5, 2008/C13*, BSO at MTC
  DMF +BSO (MTC): 2.00
2008/C13* cell line; Table 5, 2008/C13*, absence of BSO (reference)
  DMF Control: 1.00
2008/C13* cell line; Table 6, 2008/C13* with BSO vs. 2008 without BSO
  RF +BSO (MTC): 7.32
2008/C13* cell line; Table 6, 2008/C13* without BSO vs. 2008 without BSO
  RF Control: 14.6
2008 cell line; 2008, BSO at MTC, read-out: IC50 +BSO (MTC)
  IC50: 0.77 µM
2008 cell line; 2008, absence of BSO, read-out: IC50 Control
  IC50: 1.42 µM
2008 cell line; Table 5, 2008, BSO at MTC
  DMF +BSO (MTC): 1.84
2008 cell line; Table 5, 2008, absence of BSO (reference)
  DMF Control: 1.00
2008 cell line; Table 6, 2008 parent line without BSO (reference)
  RF Control: 1.00
SKOV-3 cell line; [4]
  IC50: 21.1 µM
SKOV-3 cell line; [5]
  IC50: 33 µM
SKOV-3 cell line; BSO at sub-MTC
  DMF +BSO (MTC): 1.56
SKOV-3 cell line
  DMF Control: 1.00
SKOV-3 cell line; Table 6, SKOV-3 with BSO vs. 2008 without BSO
  RF +BSO (MTC): 14.9
SKOV-3 cell line; Table 6, SKOV-3 without BSO vs. 2008 without BSO
  RF Control: 23.2
Human A2780 cell line; Table 4, A2780, BSO at MTC, read-out: IC50 +BSO (MTC)
  IC50: 4.25 µM
Human A2780 cell line; Table 4, A2780, absence of BSO, read-out: IC50 Control
  IC50: 6.75 µM
Human A2780 cell line; Table 5, A2780, BSO at MTC
  DMF +BSO (MTC): 1.59
Human A2780 cell line; Table 5, A2780, absence of BSO (reference)
  DMF Control: 1.00
Human A2780 cell line; Table 6, A2780 parent line without BSO (reference)
  RF Control: 1.00
Human 2780CP cell line
  Resistance Factor vs. 2780CP +10 μM BSO: 12.1
  Resistance Factor vs. 2780CP +3 mM BSO (MTC): 8.63
  Resistance Factor vs. 2780CP Control (Without BSO): 14.9
Human 2780CP cell line; Table 4, 2780CP, BSO at MTC, read-out: IC50 +BSO (MTC)
  IC50: 58.3 µM
Human 2780CP cell line; Table 4, 2780CP, absence of BSO, read-out: IC50 Control
  IC50: 101 µM
Human 2780CP cell line; Table 5, 2780CP, BSO at MTC
  DMF +BSO (MTC): 1.73
Human 2780CP cell line; Table 5, 2780CP, absence of BSO (reference)
  DMF Control: 1.00
Human 2780CP cell line; Table 6, 2780CP with BSO vs. A2780 without BSO
  RF +BSO (MTC): 8.63
Human 2780CP cell line; Table 6, 2780CP without BSO vs. A2780 without BSO
  RF Control: 14.9
Human 2780CP cell line; in both sensitive and resistant models (Table 2: A2780 and 2780CP)
  increase in antitumor activity when combined with BSO: less than 2 fold
[1]; BSO pretreatment, RPMI 8322
  dose modification factor (DMF), potentiation by BSO: 1.5
[2]; isolated publications
  increase in antitumor activity in combination with BSO, isolated publications: up to 4 fold
[2]; usually
  increase in antitumor activity in combination with BSO, usual: under 2 fold

## [NH2][Pt]([Cl])([Cl])([Cl])([Cl])[NH]C1CCCCC1 [Complex 15]
Human A2780 cell line; [6]
  IC50: 0.72 µM
Human A2780 cell line
  DMF vs. A2780 +10 μM BSO (MTC): 1.26
  DMF vs. A2780 Control (Without BSO): 1.00
Human A2780 cell line; [7]
  IC50: 0.91 µM
Human 2780CP cell line; [8]
  IC50: 10.8 µM
Human 2780CP cell line; [9]
  IC50: 4.34 µM
Human 2780CP cell line
  Resistance Factor vs. 2780CP +10 μM BSO: 11.9
  Resistance Factor vs. 2780CP +3 mM BSO (MTC): 4.77
  Resistance Factor vs. 2780CP Control (Without BSO): 16.9
  DMF vs. 2780CP +10 μM BSO: 1.43
  DMF vs. 2780CP +3 mM BSO (MTC): 3.55
  DMF vs. 2780CP Control (Without BSO): 1.00
Human 2780CP cell line; [10]
  IC50: 15.4 µM

## [NH2][Pt]([OH])([OH])([Cl])([Cl])[NH]C1CCCCC1 [Complex 16]
Human A2780 cell line; [6]
  IC50: 3.07 µM
Human A2780 cell line
  DMF vs. A2780 +10 μM BSO (MTC): 1.16
  DMF vs. A2780 Control (Without BSO): 1.00
Human A2780 cell line; [7]
  IC50: 3.55 µM
Human 2780CP cell line; [8]
  IC50: 19.6 µM
Human 2780CP cell line; [9]
  IC50: 8.92 µM
Human 2780CP cell line
  Resistance Factor vs. 2780CP +10 μM BSO: 5.52
  Resistance Factor vs. 2780CP +3 mM BSO (MTC): 2.51
  Resistance Factor vs. 2780CP Control (Without BSO): 6.73
  DMF vs. 2780CP +10 μM BSO: 1.22
  DMF vs. 2780CP +3 mM BSO (MTC): 2.68
  DMF vs. 2780CP Control (Without BSO): 1.00
Human 2780CP cell line; [10]
  IC50: 23.9 µM

## [NH2][Pt]([OH])([OH])([Cl])([Cl])[N]1CCCCCC1 [Complex 18]
SKOV-3 cell line; [4]
  IC50: 14.2 µM
SKOV-3 cell line; [5]
  IC50: 140 µM
SKOV-3 cell line; BSO at sub-MTC
  DMF +BSO (MTC): 9.86
SKOV-3 cell line
  DMF Control: 1.00

## CC(=O)[O][Pt]([NH2])([Cl])([Cl])([O]C(C)=O)[N]1CCCCCC1 [Complex 19]
SKOV-3 cell line; [4]
  IC50: 21.6 µM
SKOV-3 cell line; [5]
  IC50: 100 µM
SKOV-3 cell line; BSO at sub-MTC
  DMF +BSO (MTC): 4.63
SKOV-3 cell line
  DMF Control: 1.00

## CCCCS(=N)(=O)CCC(N)C(=O)O (stereo not drawn) [S-butyl homocysteine sulfoximine]
[3]; vs. methionine sulfoximine
  inhibition effectiveness relative to methionine sulfoximine: at least 100 times
[3]; vs. prothionine sulfoximine
  inhibition effectiveness relative to prothionine sulfoximine: about 20 times

## N[C@@H](Cc1ccc(N(CCCl)CCCl)cc1)C(=O)O [melphalan]
[1]
  effect of BSO pretreatment on cytotoxicity: enhanced cytotoxicity
